Entries after “also recorded” stand apart in the source; their conditions may differ.
Columns and labels:
[1] = parameters: method as in PMID 30282913; settings: cited from earlier work
[2] = Model of excessive eating (palatable diet), 3-week administration; type: in vivo, male Wistar rats
Protocol: The experiments were carried out on male Wistar rats. Their initial body weight was 210–230 g. The animals were housed in pairs in plastic cages in constant temperature facilities exposed to a light–dark cycle; water and food were available ad libitum. The control and experimental groups consisted of eight animals each. All experiments were conducted according to the guidelines of the Animal Use and Care Committee of the Jagiellonian University and were approved for realization (2013 and 2015, Poland; Permissions No 136/2013 and 258/2015).
In order to determine the anorectic activity of KMP-10, its effect on caloric and water intake in the model of excessive eating was assessed. Male Wistar rats were housed in pairs. Two groups of 8 rats were fed diets consisting of milk chocolate with nuts, cheese, salted peanuts, and 7% condensed milk; these rats also had access to a standard feed (Labofeed B, Morawski Manufacturer Feed, Poland) and water ad libitum for 3 weeks. The palatable control group (palatable diet + vehicle) received vehicle (1% Tween 80, i.p.), while the palatable test group (palatable diet + KMP-10 5 mg) was intraperitoneally injected with KMP-10 at the dose 5 mg/kg b.w./day dissolved in 1% Tween 80. The intakes of food and water were evaluated daily. On the 22th day, 20 min after the i.p. administration of heparin 1000 units/rat and thiopental (70 mg/kg b.w.), blood, peritoneal fat pads, liver were collected from animals.
The palatable diet contained 100 g of peanuts—614 kcal; 100 mL of condensed milk—131 kcal; 100 g of milk chocolate with hazelnuts—[…]; and 100 g of cheese (Greek type)—270 kcal.
The spontaneous activity of rats was measured on the 1st, 14th and 20th day of the treatment with a special RFID-system—TraffiCage (TSE-Systems, Germany). The animals were subcutaneously implanted with transmitter identification (RFID), which enabled the presence and time spent in different areas of the cage to be counted; the data were then grouped in a special computer program.
To determine the glucose or cholesterol or triglyceride levels in blood, standard enzymatic and spectrophotometric tests (Biomaxima S.A. Lublin, Poland) were used. The substrate was decomposed with enzymes that were appropriate for the relevant product, which was converted to a colored compound. Coloration was proportional to the concentration. The absorbance was measured at a wavelength of 500 nm.

[3] = system: human embryonic kidney (HEK)-293 cells; parameters: method as in PMID 30282913; settings: highest concentration 100 µM; cited from earlier work
[4] = Elevated plus-maze (EPM) test; type: in vivo, male Wistar rats; settings: for Total distance / X Ambulation / Y Ambulation: mean ± SEM
Protocol: The experiments were performed on male Wistar rats (200–220 g) obtained from an accredited animal facility at the Jagiellonian University Medical College, Poland. The animals were housed in group of four in controlled environment (ambient temperature 21 ± 2 °C; relative humidity 50%–60%; 12-h light/dark cycles (lights on at 8:00). Standard laboratory food (LSM-B) and filtered water were freely available. Animals were randomly assigned to treatment groups. All the experiments were performed by two observers unaware of the studied treatment between 9:00 and 14:00 on separate groups of animals. All animals were used only once. Procedures involving animals and their care were conducted in accordance with current European Community and Polish legislation on animal experimentation. Additionally, all efforts were made to minimize animal suffering and to use only the number of animals necessary to produce reliable scientific data. The experimental protocols and procedures described in this manuscript were approved by the I Local Ethics Commission in Cracow (no 200/2018), complied with the European Communities Council Directive of 24 November 1986 (86/609/EEC), and were in accordance with the 1996 National Institutes of Health Guide for the Care and Use of Laboratory Animals.
All compounds were suspended in 1% Tween 80 immediately before administration in a volume of 2 mL/kg. Compounds were intraperitoneally administered 60 min before testing. Control animals received vehicle (1% Tween 80) according to the same schedule.
The testing procedure was based on a method described by. The plus-maze apparatus (an automated device produced by Campden Instruments Ltd. (United Kingdom) was made of durable, high density, non-porous black plastic, elevated to a height of 50 cm, and consisted of two open arms (50 × 10 cm) and two closed arms (50 × 10 cm, and 30 cm high walls) arranged so that the two arms of each type were opposite each other. The floor of the plus-maze was made of infrared transparent material, which means that there were no visible sensors. The plus-maze apparatus was connected to PC software by a control chassis. The experiments were conducted in a darkened room, and only the center of the maze was illuminated with low-intensity light (30 lux measured on the maze level). Each rat was gently placed in the center of the plus-maze, facing one of the closed arms, immediately after a 5-min adaptation period in a plastic black box (60 × 60 × 35 cm), to increase the overall activity in the EPM. During a 5-min test period, an automated motor monitor system recorded the number of entries into the closed and open arms and the time spent in either type of arm. The device counted an effective arm-entry when the four paws of a rat were into any arm. The maze was thoroughly cleaned after each trial. The EPM test is an “unconditional” anxiety-like test based on rodents’ natural aversion to heights and open space.
The experiment was performed using an EPM apparatus (details see above). Total ambulation (the total distance covered by a rat and ambulation along the X and Y axes) was taken into account to discern drug effects on general activity from those on open-arm exploration during a 5-min test period (i.e., the time equal to the observation period in the EPM test). Rats’ behavior was not videotaped during the test.

[5] = 5 mg/kg b.w., vs group fed the palatable feed
[6] = model of excessive eating, 5 mg/kg b.w./day i.p.
[7] = palatable diet, 5 mg/kg b.w./day i.p., 3 weeks, vs obesity control group
[8] = 0.3 mg/kg i.p., 60 min before test, 5-min session
[9] = 1 mg/kg i.p., 60 min before test, 5-min session
[10] = 3 mg/kg i.p., 60 min before test, 5-min session

## CN1CCN(c2nc(N)nc(CN3C(=O)NC(C)(c4ccc5ccccc5c4)C3=O)n2)CC1 (centres unmarked) [KMP-10, 3-((4-amino-6-(4-methylpiperazin-1-yl)-1,3,5-triazin-2-yl)methyl)-5-methyl-5-(naphthalen-2-yl)imidazolidine-2,4-dione]
[1]
  Antidepressive-like properties in the Porsolt model: antidepressive-like properties
[2]; [5]
  HDL cholesterol: significantly increased; also recorded: significant increase
  Total cholesterol in blood: significantly decreased
[2]; [6]
  Plasma glucose: did not reduce
  Plasma triglyceride: did not reduce
[2]; [7]
  Amount of calories consumed: significantly reduced
  Water intake: but not water intake
[2]; three-week chronic treatment, 5 mg/kg b.w./day i.p.
  Amount of peritoneal fat: did not reduce
[3]
  HEK-293 cells viability: no effect
[4]; [8]
  Total distance: 3240 ± 209 cm
  X Ambulation: 116 ± 18
  Y Ambulation: 98 ± 20
[4]; [9]
  Total distance: 4558 ± 205 cm
  X Ambulation: 152 ± 17
  Y Ambulation: 63 ± 12
[4]; [10]
  Total distance: 3881 ± 298 cm
  X Ambulation: 131 ± 18
  Y Ambulation: 133 ± 25
[4]; rats, doses of 1 and 3 mg/kg i.p., 60 min before test
  Anxiolytic-like activity in EPM test: showed anxiolytic-like activity
[4]; rats, i.p.
  Locomotor activity in EPM test: no changes
[4]; rats, i.p., 5-min session, ANOVA F(3,22) = 15.774, p < 0.0001
  Percentage of time spent in the open arms: increased
[4]; rats, i.p., 5-min session, ANOVA F(3,22) = 17.100, p < 0.0001
  Time spent in the open arms: increased
[4]; rats, i.p., 5-min session, ANOVA p < 0.01
  Distance travelled in the open arms: increased

Source: article PMC6943527, “Are the Hydantoin-1,3,5-triazine 5-HT6R Ligands a Hope to a Find New Procognitive and Anti-Obesity Drug? Considerations Based on Primary In Vivo Assays and ADME-Tox Profile In Vitro” (Molecules, 2019)
